This passage reports IC50 results from patent publication US10023593B2, “ALK kinase inhibitor, and preparation method and uses thereof” (BEIJING PEARL BIOTECHNOLOGY LIMITED LIABILITY COMPANY, priority 2014, dated 2018).

The target in assay [1] is cytochrome P450 2C9 (Homo sapiens, UniProt P11712). In words: Inhibitory activity on cytochrome P450 2C9. The format is in vitro ADME. The settings on record: no significant inhibition.
Assay [2] concerns the target cytochrome P450 2C19 (Homo sapiens, UniProt P33261). In words: Inhibitory activity on cytochrome P450 2C19. It is filed as in vitro ADME. The settings on record: no significant inhibition.
Assay [3] has as its target T1, Wild Type ALK kinase (Homo sapiens, UniProt Q9UM73).
T1 construct: purchased Sino-US Crown Bioscience, Inc. batch number ALK 20110607
In words: HTRF KinEASE-TK assay, inhibitory activity on wild type ALK kinase. The format is biochemical. The settings on record: wild type ALK 1 ng/μl, substrate 1 μM, 30° C. 35 minutes, read-out: Inhibition on ALK kinases (wildtype), IC50. Summed up: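 ALK kinase at 1 ng/μl and substrate at 1 μM were reacted with compound (1% DMSO) in buffer with 5 mM MgCl2 and 1 mM DTT for 35 min at 30 °C. HTRF detection used the 665/615 ratio, normalised to no-compound wells and to 10.4 μM LDK-378 wells. IC50 came from a concentration-response fit.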
(In general: In TR-FRET formats the signal depends on donor and acceptor labels being close together.)

The target in assay [4] is cytochrome P450 2D6 (Homo sapiens, UniProt P10635). In words: Inhibitory activity on cytochrome P450 2D6. It is filed as in vitro ADME. The following applies: no significant inhibition.
The target of assay [5] is cytochrome P450 3A4 (Homo sapiens, UniProt P08684). The assay is described as follows: Inhibitory activity on cytochrome P450 3A4. The format is in vitro ADME. The settings on record: no significant inhibition.
The target of assay [6] is T2, cytochrome P450 1A2 (Homo sapiens, UniProt P05177).
T2 sequence (P05177 1-516): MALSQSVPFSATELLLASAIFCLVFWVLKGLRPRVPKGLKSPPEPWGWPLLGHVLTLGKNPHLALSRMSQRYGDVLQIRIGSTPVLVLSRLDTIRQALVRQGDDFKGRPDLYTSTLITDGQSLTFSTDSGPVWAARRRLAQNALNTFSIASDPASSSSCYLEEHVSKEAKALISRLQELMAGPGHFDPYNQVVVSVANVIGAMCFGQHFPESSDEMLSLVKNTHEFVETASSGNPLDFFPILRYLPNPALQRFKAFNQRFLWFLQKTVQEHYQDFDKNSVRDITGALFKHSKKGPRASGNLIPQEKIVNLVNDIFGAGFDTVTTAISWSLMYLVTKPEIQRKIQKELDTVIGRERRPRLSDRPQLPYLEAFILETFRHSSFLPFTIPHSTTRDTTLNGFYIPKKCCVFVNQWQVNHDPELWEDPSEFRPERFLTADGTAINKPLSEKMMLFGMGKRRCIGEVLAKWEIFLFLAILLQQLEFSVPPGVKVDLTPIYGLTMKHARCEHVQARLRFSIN
In words: Inhibitory activity on cytochrome P450 1A2. The settings on record: no significant inhibition. It is filed as in vitro ADME.

Assay [7] has as its target T3, L1196M mutant ALK kinase (Homo sapiens, UniProt Q9UM73, L1196M).
T3 construct: purchased Sino-US Crown Bioscience, Inc. batch number ALKm_20110923
The assay is described as follows: HTRF KinEASE-TK assay, inhibitory activity on L1196M mutant ALK kinase. It is filed as biochemical. The settings on record: L1196M mutant ALK 1 ng/μl, substrate 1 μM, ATP 5 μM, 30° C. 35 minutes, read-out: Inhibition on ALK kinases (L1196M mutant), IC50. Summed up:
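HTRF TK assay: mutant kinase 1 ng/μl, substrate 1 μM, ATP 5 μM, 5 mM MgCl2, 1 mM DTT, 1% DMSO, 35 min at 30 °C. 665/615 ratio read; inhibition normalised to no-compound and 10.4 μM LDK-378 controls; IC50 from curve fit.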

A value given as a limit tells only on which side of the number the result lay.

T3 sequence (Q9UM73 19-1620 L1196M): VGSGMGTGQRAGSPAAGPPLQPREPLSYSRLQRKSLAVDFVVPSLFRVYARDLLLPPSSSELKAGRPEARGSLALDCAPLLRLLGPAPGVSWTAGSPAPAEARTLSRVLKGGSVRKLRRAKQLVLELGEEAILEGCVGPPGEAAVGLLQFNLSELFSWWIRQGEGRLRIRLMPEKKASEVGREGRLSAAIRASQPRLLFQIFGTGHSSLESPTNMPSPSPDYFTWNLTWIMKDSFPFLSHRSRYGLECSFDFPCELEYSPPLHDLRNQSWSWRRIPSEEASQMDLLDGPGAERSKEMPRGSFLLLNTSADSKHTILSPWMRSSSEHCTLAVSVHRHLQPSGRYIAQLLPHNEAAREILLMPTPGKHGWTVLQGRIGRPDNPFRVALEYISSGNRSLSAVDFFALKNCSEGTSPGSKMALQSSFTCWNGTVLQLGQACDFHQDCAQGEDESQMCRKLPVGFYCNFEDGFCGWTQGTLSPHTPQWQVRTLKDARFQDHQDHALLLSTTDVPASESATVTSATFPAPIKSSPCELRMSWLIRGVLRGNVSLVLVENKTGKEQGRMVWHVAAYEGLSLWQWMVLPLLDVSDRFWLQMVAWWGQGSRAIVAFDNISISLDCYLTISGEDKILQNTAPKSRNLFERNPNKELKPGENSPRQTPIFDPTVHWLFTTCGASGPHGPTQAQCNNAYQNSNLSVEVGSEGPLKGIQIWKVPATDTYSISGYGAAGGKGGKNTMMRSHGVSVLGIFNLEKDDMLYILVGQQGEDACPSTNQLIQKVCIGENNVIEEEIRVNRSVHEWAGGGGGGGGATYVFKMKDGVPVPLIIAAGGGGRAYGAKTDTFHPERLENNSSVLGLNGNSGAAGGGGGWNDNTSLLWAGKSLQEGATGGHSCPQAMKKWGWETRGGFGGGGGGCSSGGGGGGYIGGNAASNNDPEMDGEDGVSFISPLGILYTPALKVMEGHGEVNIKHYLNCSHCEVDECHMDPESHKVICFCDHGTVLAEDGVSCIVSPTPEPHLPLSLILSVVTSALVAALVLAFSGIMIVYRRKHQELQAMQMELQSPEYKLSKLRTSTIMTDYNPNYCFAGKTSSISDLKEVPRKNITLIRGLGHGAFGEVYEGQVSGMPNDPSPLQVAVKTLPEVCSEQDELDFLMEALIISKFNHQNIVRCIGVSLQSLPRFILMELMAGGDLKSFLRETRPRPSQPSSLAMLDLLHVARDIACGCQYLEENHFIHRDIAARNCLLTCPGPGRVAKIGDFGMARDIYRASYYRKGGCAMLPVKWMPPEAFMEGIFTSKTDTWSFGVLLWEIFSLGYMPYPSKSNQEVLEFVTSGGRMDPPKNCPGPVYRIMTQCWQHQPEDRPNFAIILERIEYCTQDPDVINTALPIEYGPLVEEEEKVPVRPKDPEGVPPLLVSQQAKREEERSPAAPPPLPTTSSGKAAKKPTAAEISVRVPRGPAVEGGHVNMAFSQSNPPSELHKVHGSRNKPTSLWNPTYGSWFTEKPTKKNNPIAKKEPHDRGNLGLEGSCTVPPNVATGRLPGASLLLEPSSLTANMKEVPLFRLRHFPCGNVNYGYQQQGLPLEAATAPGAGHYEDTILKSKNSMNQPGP
Sequence of cytochrome P450 2C19 (P33261 whole entry): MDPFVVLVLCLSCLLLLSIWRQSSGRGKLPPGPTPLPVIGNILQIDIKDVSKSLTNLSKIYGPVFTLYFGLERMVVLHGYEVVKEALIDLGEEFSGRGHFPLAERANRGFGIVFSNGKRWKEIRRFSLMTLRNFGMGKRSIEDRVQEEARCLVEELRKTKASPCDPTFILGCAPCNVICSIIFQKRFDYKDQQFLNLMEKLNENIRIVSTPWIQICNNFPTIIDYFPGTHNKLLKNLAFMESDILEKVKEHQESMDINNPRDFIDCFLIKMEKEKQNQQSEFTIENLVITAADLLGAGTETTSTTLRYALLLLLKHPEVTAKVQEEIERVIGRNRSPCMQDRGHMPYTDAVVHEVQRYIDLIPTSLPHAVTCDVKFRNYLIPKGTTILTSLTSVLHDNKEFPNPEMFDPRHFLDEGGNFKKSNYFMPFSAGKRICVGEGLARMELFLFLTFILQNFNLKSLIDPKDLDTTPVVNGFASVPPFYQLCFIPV
T1 sequence (Q9UM73 19-1620): as the sequence (Q9UM73 19-1620 L1196M) above, with M1178L counted along it
Sequence of cytochrome P450 2D6 (P10635 whole entry): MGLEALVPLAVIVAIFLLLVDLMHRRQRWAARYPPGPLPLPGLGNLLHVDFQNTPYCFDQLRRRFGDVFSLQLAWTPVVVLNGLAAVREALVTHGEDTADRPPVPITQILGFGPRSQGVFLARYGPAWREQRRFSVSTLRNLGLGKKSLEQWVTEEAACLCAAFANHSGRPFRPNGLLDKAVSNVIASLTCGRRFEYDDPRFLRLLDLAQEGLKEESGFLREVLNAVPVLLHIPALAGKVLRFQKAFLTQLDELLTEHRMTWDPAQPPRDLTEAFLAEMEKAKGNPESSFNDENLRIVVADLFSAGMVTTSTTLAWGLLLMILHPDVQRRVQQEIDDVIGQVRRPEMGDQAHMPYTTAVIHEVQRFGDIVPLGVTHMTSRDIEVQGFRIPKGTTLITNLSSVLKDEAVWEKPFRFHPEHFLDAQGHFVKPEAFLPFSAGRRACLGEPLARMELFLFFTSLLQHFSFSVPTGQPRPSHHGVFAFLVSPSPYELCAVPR
Sequence of cytochrome P450 2C9 (P11712 whole entry): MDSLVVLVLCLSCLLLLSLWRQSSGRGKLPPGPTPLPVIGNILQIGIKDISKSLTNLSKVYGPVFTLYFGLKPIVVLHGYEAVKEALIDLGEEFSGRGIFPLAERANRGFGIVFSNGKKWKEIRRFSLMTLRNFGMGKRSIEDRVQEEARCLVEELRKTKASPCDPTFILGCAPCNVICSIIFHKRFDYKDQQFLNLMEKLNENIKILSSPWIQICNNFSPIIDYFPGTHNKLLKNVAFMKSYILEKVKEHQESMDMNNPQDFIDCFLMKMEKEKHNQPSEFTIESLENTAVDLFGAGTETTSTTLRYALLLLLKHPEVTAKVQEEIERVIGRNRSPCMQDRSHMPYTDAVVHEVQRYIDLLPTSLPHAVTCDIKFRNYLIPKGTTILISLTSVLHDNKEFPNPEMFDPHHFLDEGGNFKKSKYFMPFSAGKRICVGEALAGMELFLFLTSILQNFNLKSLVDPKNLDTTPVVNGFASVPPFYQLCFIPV
Sequence of cytochrome P450 3A4 (P08684 whole entry): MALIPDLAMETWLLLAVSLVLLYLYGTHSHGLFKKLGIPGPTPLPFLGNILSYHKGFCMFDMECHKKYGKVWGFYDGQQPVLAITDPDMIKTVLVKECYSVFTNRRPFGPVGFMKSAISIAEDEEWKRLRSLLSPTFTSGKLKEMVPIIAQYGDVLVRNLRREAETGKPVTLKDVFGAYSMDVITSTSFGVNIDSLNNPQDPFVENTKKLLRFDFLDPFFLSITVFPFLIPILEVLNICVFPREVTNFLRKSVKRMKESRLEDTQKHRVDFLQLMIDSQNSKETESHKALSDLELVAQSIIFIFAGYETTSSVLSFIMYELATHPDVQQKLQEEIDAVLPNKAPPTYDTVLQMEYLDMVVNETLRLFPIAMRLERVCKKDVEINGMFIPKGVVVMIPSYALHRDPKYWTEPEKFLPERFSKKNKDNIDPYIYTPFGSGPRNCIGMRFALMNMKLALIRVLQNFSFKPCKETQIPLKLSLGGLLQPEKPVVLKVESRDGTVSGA

For `Cc1cc(Nc2ncc(Cl)c(Nc3cn(C)nc3S(=O)(=O)C(C)C)n2)c(OC2CC2)cc1C1CC(C)N(C)C(C)C1` (stereo not drawn) [Final product 95], the IC50 (usually the concentration that inhibits the measured activity by half) in assay [1] was more than 10 µM; in assay [2], more than 10 µM; in assay [3] it was 2 nM; in assay [4], more than 10 µM; in assay [5], more than 10 µM; in assay [6], more than 10 µM. In assay [7], the IC50 worked out at 3 nM.
As for `Cc1cc(Nc2ncc(Cl)c(Nc3cn(C)nc3S(=O)(=O)C(C)C)n2)c(OC2CC2)cc1C1CCN(CCO)CC1` [Final product 133, 2-(4-(4-(5-chloro-4-(3-(isopropylsulfonyl)-1-methyl-1H-pyrazol-4-amino)pyrimidin-2-amino)-5-cyclopropoxy-2-methylphenyl)piperidin-1-yl) ethanol], the IC50 is more than 10 µM in assay [1]; more than 10 µM in assay [2]; 2 nM in assay [3]; more than 10 µM in assay [4]; more than 10 µM in assay [5]; more than 10 µM in assay [6]. Moreover, the IC50 in assay [7] is 6 nM.
For the molecule `Cc1cc(Nc2ncc(Cl)c(Nc3cn(C)nc3S(=O)(=O)C(C)C)n2)c(OC2CC2)cc1C1CCN(CCN(C)C)CC1` [Final product 146, 5-chloro-N^2-(2-cyclopropoxy-4-(1-(2-(dimethylamino)ethyl)piperidin-4-yl)-5-methylphenyl)-N^4-(3-(isopropylsulfonyl)-1-methyl-1H-pyrazol-4-yl)-pyrimidin-2,4-diamine], the 50% inhibitory concentration (IC50) in assay [1] was more than 10 µM; in assay [2], more than 10 µM; in assay [3], 2 nM; in assay [4], more than 10 µM; in assay [5], more than 10 µM; in assay [6], more than 10 µM. For the same molecule, the IC50 in assay [7] was found to be 5 nM.
Regarding `Cc1cc(Nc2ncc(Cl)c(Nc3cn(C)nc3S(=O)(=O)C(C)C)n2)c(OC2CC2)cc1C1CCN(C2COC2)CC1` [Final product 156], the IC50 in assay [1] was more than 10 µM; in assay [2], more than 10 µM; in assay [3] it was 10 nM; in assay [4] it was more than 10 µM; in assay [5], more than 10 µM; in assay [6], more than 10 µM. Besides, the IC50 in assay [7] came to 10 nM.
As to `CC(=O)N1CCC(c2cc(OC3CC3)c(Nc3ncc(Cl)c(Nc4cn(C)nc4S(=O)(=O)C(C)C)n3)cc2C)CC1` [Final product 160, 1-acetyl-4-(4-(5-chloro-4-(3-(isopropylsulfonyl)-1-methyl-1H-pyrazol-4-amino)pyrimidin-2-amine)-5-cyclopropoxy-2-methylphenyl)piperidine], the IC50 was more than 10 µM in assay [1]; more than 10 µM in assay [2]; 7 nM in assay [3]; more than 10 µM in assay [4]; more than 10 µM in assay [5]; more than 10 µM in assay [6]. Further, the IC50 in assay [7] amounted to 9 nM.
As for `Cc1cc(Nc2ncc(Cl)c(Nc3cn(C)nc3S(=O)(=O)C(C)C)n2)c(OC2CC2)cc1C1CCN(C(=O)C(F)(F)F)CC1` [Final product 161, 1-trifluoroacetyl-4-(4-(5-chloro-4-(3-(isopropylsulfonyl)-1-methyl-1H-pyrazol-4-amino)pyrimidin-2-amine)-5-cyclopropoxy-2-methylphenyl)piperidine], the IC50 in assay [1] is more than 10 µM; in assay [2], more than 10 µM; in assay [3], 32 nM; in assay [4] it was more than 10 µM; in assay [5], more than 10 µM; in assay [6], more than 10 µM. The IC50 in assay [7] was 43 nM.
As for `Cc1cc(Nc2ncc(Cl)c(Nc3cn(C)nc3S(=O)(=O)C(C)C)n2)c(OC2CC2)cc1C1CCN(C(=O)CC#N)CC1` [Final product 166, 1-cyano acetyl-4-(4-(5-chloro-4-(3-(isopropylsulfonyl)-1-methyl-1H-pyrazol-4-amino)pyrimidin-2-amine)-5-cyclopropoxy-2-methylphenyl)piperidine], the IC50 is more than 10 µM in assay [1]; more than 10 µM in assay [2]; 3 nM in assay [3]; more than 10 µM in assay [4]; more than 10 µM in assay [5]; more than 10 µM in assay [6]. The IC50 in assay [7] stood at 6 nM.
Turning to `Cc1cc(Nc2ncc(Cl)c(Nc3cn(C)nc3S(=O)(=O)C(C)C)n2)c(OC2CC2)cc1C1CCN(S(C)(=O)=O)CC1` [Final product 167, 5-chloro-N^2-(2-cyclopropoxy-5-methyl-4-(1-methanesulfonyl-piperidin-4-yl)-phenyl)-N^4-(3-(isopropylsulfonyl)-1-methyl-1H-pyrazol-4-yl)pyrimidin-2,4-diamine], the IC50 was more than 10 µM in assay [1]; more than 10 µM in assay [2]; 9 nM in assay [3]; more than 10 µM in assay [4]; more than 10 µM in assay [5]; more than 10 µM in assay [6]. Further, the IC50 in assay [7] was found to be 11 nM.
Turning to `CC(=O)N1CCN([C@H]2CC[C@H](c3cc(OC4CC4)c(Nc4ncc(Cl)c(Nc5cn(C)nc5S(=O)(=O)C(C)C)n4)cc3C)CC2)CC1` [Final product 204], the IC50 was more than 10 µM in assay [1]; more than 10 µM in assay [2]; 7 nM in assay [3]; more than 10 µM in assay [4]; more than 10 µM in assay [5]; more than 10 µM in assay [6]. Further, in assay [7], the IC50 was determined as 18 nM.
